One may read the Ki as a measure of affinity in units of concentration, obtained from inhibition or displacement. The low end stands for higher affinity, the high end for lower affinity. One may read the inhibition in vivo as the drop in the measured response relative to a control, in per cent.

The values that follow come from ChEMBL document CHEMBL1130574, “5-HT1A and 5-HT2A ligands with anxiolytic and antipanic-like properties” (Bioorg Med Chem Lett, 1997).

One assay addresses D(2) dopamine receptor (Rattus norvegicus, UniProt P61169). The assay can be described thus: Binding affinity against D2 receptor in rat striatum using [3H]raclopride. The assay is classed as tissue-based.
Assay [1] has as its target T1, 5-hydroxytryptamine receptor 2C (Rattus norvegicus, UniProt P08909).
T1 sequence (P08909 whole entry): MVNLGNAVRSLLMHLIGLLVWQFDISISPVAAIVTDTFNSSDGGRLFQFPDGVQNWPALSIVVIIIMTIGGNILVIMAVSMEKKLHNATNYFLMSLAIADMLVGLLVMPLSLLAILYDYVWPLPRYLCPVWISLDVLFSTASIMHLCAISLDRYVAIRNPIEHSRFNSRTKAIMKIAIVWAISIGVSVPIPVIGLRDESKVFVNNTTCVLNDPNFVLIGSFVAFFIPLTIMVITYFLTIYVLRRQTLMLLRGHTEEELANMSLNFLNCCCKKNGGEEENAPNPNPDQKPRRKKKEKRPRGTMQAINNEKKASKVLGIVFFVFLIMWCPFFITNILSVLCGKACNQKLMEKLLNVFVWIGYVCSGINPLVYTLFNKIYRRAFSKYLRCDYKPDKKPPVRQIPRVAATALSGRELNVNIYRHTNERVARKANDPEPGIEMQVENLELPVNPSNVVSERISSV
The assay can be described thus: Binding affinity against 5-hydroxytryptamine 2C receptor in rat choroid plexus using [3H]N-methyl-mesulergine.

In assay [2] the target is 5-hydroxytryptamine receptor 2A (Rattus norvegicus, UniProt P14842). Put plainly: Binding affinity for 5-hydroxytryptamine 2A receptor in rat cortex using [3H]ketanserin. The class given is tissue-based.
Assay [3] addresses T2, 5-hydroxytryptamine receptor 1A (Rattus norvegicus, UniProt P19327).
T2 sequence (P19327 whole entry): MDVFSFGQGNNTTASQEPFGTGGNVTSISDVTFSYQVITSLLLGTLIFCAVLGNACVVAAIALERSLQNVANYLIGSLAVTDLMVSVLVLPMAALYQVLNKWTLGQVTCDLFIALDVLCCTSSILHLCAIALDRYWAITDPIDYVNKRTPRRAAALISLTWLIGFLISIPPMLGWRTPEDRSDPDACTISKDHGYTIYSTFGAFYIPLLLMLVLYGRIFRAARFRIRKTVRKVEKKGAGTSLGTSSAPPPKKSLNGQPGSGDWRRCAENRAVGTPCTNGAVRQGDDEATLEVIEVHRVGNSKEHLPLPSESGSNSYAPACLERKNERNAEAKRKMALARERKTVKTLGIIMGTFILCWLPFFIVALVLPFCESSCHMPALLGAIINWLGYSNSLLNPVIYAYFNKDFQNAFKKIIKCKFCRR
Put plainly: Binding affinity against 5-hydroxytryptamine 1A receptor of rat hippocampus using [3H]8-OH-DPAT. The assay is classed as tissue-based.

Assay [4] concerns the target T3, Adrenergic receptor alpha-1 (Rattus norvegicus, UniProt P15823+P23944+P43140).
T3 sequence (P15823 whole entry): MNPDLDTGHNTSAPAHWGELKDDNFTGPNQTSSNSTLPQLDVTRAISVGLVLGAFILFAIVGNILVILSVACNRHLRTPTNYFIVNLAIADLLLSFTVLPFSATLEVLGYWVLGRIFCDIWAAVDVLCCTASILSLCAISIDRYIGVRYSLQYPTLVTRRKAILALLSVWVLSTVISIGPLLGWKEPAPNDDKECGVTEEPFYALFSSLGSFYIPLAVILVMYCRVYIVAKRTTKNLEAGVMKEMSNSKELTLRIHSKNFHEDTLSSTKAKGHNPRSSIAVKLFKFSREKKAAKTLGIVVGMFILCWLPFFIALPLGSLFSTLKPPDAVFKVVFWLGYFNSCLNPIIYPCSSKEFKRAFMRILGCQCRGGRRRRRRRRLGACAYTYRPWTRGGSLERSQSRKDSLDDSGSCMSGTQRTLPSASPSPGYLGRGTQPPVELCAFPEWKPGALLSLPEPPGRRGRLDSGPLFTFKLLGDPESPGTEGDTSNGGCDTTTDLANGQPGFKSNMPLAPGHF
T3 sequence (P23944 whole entry): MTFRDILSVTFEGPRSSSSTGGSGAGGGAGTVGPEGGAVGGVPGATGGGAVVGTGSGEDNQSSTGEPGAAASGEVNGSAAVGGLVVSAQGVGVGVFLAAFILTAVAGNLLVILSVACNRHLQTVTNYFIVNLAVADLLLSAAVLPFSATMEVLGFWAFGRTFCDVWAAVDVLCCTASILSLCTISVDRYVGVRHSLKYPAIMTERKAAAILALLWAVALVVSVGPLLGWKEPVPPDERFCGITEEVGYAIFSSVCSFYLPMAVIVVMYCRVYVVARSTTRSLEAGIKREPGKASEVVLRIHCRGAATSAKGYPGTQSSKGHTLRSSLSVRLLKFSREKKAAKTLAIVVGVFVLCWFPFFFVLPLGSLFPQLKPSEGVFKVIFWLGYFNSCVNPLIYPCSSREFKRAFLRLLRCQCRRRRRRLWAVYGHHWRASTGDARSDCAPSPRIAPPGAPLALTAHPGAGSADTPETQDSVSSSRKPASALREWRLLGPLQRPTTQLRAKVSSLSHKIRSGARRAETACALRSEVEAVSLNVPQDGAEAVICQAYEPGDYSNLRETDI
T3 sequence (P43140 whole entry): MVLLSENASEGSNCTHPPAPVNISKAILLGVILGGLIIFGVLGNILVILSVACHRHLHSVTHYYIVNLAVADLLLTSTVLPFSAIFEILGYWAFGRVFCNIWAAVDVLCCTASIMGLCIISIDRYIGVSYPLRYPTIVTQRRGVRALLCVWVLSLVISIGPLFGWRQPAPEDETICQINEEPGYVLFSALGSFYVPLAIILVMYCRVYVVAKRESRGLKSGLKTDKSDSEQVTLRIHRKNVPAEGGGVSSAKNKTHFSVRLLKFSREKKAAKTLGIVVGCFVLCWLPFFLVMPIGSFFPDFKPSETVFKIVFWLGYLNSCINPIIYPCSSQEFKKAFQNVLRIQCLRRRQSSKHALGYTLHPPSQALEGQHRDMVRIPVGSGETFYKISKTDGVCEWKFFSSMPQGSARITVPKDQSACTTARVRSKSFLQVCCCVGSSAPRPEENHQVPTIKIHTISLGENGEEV
The assay can be described thus: Binding affinity against Alpha-1 adrenergic receptor in rat cortex using [3H]prazosin. The class given is tissue-based, Brain.

For assay [5], the system named is Mus musculus. The assay can be described thus: 5-HT2 antagonist activity was assessed by the ability of compound to antagonise mescaline induced scratching at 8 mg/Kg administered perorally in mice. The assay is classed as functional. To be noted: po.
The test system of assay [6] is Mus musculus. The assay can be described thus: 5-HT2 antagonist activity was assessed by the ability of compound to antagonise 5-HTP induced head twitches at 128 mg/Kg administered perorally in mice. The class given is functional. To be noted: po.
Assay [7] deals with Mus musculus. The assay can be described thus: 5-HT2 antagonist activity was assessed by the ability of compound to antagonise mescaline induced scratching at 32 mg/Kg administered perorally in mice. To be noted: po. The assay is classed as functional.
The test system of assay [8] is Mus musculus. The assay can be described thus: 5-HT2 antagonist activity was assessed by the ability of compound to antagonise 5-HTP induced head twitches at 45 mg/Kg administered perorally in mice. The class given is functional. To be noted: po.
Assay [9] has as its system Mus musculus. Put plainly: 5-HT2 antagonist activity was assessed by the ability of compound to antagonise 5-HTP induced head twitches at 4 mg/Kg administered intraperitoneally in mice; Inactive. The assay is classed as functional, organism-based.
The subject of assay [10] is Mus musculus. Put plainly: 5-HT2 antagonist activity was assessed by the ability of compound to antagonise mescaline induced scratching at 16 mg/Kg administered intraperitoneally in mice; Inactive. The class given is functional, organism-based.
Assay [11] has as its system Mus musculus. The assay can be described thus: Compound was tested for sedative activity in mice at the dose of 4 mg/kg perorally; active. On the set-up: dose 4 mg/kg. The class given is functional, organism-based.

SMILES strings stand for the structures. The source made the active and inactive calls. The rule behind the calls is not given here. A value given as a limit tells only on which side of the number the result lay.

D(2) dopamine receptor, sequence (P61169 whole entry): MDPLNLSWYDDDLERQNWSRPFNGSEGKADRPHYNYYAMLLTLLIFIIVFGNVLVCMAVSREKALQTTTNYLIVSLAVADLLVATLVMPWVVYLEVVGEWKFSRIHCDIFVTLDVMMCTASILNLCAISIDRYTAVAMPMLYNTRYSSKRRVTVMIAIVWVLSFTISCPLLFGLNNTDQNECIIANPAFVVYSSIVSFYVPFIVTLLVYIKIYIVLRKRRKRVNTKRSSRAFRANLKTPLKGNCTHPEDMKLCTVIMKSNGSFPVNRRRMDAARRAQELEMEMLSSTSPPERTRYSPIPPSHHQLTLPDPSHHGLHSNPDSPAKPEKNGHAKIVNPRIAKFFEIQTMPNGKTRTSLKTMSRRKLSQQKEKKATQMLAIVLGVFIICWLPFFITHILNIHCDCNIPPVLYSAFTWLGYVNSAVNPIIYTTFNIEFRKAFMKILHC
5-hydroxytryptamine receptor 2A, sequence (P14842 whole entry): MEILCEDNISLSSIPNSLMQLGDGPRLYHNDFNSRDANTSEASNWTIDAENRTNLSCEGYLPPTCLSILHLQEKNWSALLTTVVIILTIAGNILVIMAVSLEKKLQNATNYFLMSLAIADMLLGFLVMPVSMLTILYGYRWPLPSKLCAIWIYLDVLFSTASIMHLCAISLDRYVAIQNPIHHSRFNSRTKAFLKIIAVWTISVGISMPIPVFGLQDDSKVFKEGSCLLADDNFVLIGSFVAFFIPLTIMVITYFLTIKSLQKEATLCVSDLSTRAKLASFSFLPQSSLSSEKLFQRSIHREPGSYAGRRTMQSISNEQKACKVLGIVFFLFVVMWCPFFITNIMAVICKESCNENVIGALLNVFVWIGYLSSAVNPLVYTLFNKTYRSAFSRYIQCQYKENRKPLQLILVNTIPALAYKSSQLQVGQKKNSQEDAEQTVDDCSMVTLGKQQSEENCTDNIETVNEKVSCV

As to `COc1ccccc1N1CCN(CCCc2ccc3c(c2)sc(=O)n3CCN2CCC(C(=O)c3ccc(F)cc3)CC2)CC1`, the Ki was found to be 2 nM on D(2) dopamine receptor, 70 nM in [1], 2 nM in assay [2] and 3 nM in assay [3].

Consider `O=C(c1ccc(F)cc1)C1CCN(CCn2c(=O)sc3cc(CCCCN4CCN(c5cccc(C(F)(F)F)c5)CC4)ccc32)CC1`, for which the inhibitory constant (Ki) is 30 nM at D(2) dopamine receptor; above 10000 nM in [1]; 50 nM in assay [2]; 70 nM in assay [3]; 1000 nM in [4].

For `COc1ccccc1N1CCN(CCc2ccc3c(c2)sc(=O)n3CCN2CCC(C(=O)c3ccc(F)cc3)CC2)CC1`, the Ki at D(2) dopamine receptor amounted to 5 nM; in assay [1], 50 nM; in assay [2] it was 20 nM; in assay [3] it was 6000 nM; in assay [4], 1 nM.

Take `COc1ccccc1N1CCN(CCCCc2ccc3c(c2)OCC(=O)N3CCN2CCC(C(=O)c3ccc(F)cc3)CC2)CC1`: the Ki at D(2) dopamine receptor is 0.06 nM; in assay [1], 30 nM; in assay [2], 14 nM; in assay [3] it was 18 nM; in assay [4] it was 2 nM.

On to `COc1ccccc1N1CCN(CCCCc2ccc3c(c2)oc(=O)n3CCN2CCC(=C(c3ccc(F)cc3)c3ccc(F)cc3)CC2)CC1`, for which the Ki on D(2) dopamine receptor was found to be 3 nM; in assay [1], 460 nM; in assay [2] it was 335 nM; in assay [3], 98 nM; in [4], 5 nM.

Consider `COc1ccccc1N1CCN(CCCCc2ccc3c(c2)oc(=O)n3CCN2CCC(C(=O)c3ccc(F)cc3)CC2)CC1`, for which the Ki at D(2) dopamine receptor was determined as 0.5 nM; in assay [1] it was 75 nM; in assay [2], 16 nM; in assay [3], 2 nM.

Take `COc1ccccc1N1CCN(CCCCc2ccc3c(c2)sc(=O)n3CCN2CCC(C(=O)c3ccc(F)cc3)CC2)CC1`: the Ki worked out at 1.2 nM at D(2) dopamine receptor; 240 nM in assay [1]; 2 nM in [2]; 7 nM in [3]; 5 nM in [4]. In the assay on Mus musculus [5], this compound gave an inhibition in vivo at 8 mg/kg of 86%. The compound further registered an inhibition in vivo at 128 mg/kg in the assay with Mus musculus [6] of 90%. The same compound registered an inhibition in vivo at 32 mg/kg in the assay with Mus musculus [7] of 70%. Further, at 45 mg/kg the inhibition in vivo in the assay on Mus musculus [8] was 50%.

Consider `COc1ccccc1N1CCN(CCCCc2ccc3c(c2)sc(=O)n3CCN2CCC(=C(c3ccc(F)cc3)c3ccc(F)cc3)CC2)CC1`, for which the Ki was 5 nM at D(2) dopamine receptor; 110 nM in assay [1]; 7 nM in assay [2]; 5 nM in assay [3]; 5 nM in [4].

`COc1ccccc1N1CCN(CCCCc2ccc3c(c2)OCC(=O)N3CCN2CCC(=C(c3ccc(F)cc3)c3ccc(F)cc3)CC2)CC1`: the Ki was 1.4 nM on D(2) dopamine receptor; 250 nM in assay [1]; 120 nM in [2]; 49 nM in assay [3]; 13 nM in assay [4].

Regarding `O=C(c1ccc(F)cc1)C1CCN(CCn2c(=O)sc3cc(CCCCN4CCOCC4)ccc32)CC1`, the Ki on D(2) dopamine receptor was 100 nM; in assay [1], 20 nM; in [2], 0.6 nM; in assay [3], 700 nM; in assay [4] it was 40 nM. Further, the outcome with Mus musculus [9] and in the assay with Mus musculus [10] was inactive. Also, in the assay with Mus musculus [11], the result was Active.
